Data reported in the supplement of paper PMC10307832.

Experiments:
Test in all cases: relative viability (nuclei count vs DMSO), 5 days (fraction); higher = more cells survive
Everolimus + Bortezomib = compound: CO[C@H]1C[C@@H]2CC[C@@H](C)[C@@](O)(O2)C(=O)C(=O)N2CCCC[C@H]2C(=O)O[C@H]([C@H](C)C[C@@H]2CC[C@@H](OCCO)[C@H](OC)C2)CC(=O)[C@H](C)/C=C(\C)[C@@H](O)[C@@H](OC)C(=O)[C@H](C)C[C@H](C)/C=C/C=C/C=C/1C [Everolimus] + CC(C)C[C@H](NC(=O)[C@H](Cc1ccccc1)NC(=O)c1cnccn1)B(O)O [Bortezomib] (partner 0.002 µM)
Method in brief: (§1)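 Lung cancer cell lines, seeded in 1536-well plates, were treated the following day by pin tool with a single drug or with five library-drug doses (not always all listed) in √10 steps on top of a fixed anchor-drug dose. Cells were fixed and nuclei stained in one step after 5 days, and nuclei were counted. Relative viability is the nuclei count for treated wells divided by that for vehicle wells, reported as medians of duplicate plates.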

Everolimus + Lapatinib = compound: CO[C@H]1C[C@@H]2CC[C@@H](C)[C@@](O)(O2)C(=O)C(=O)N2CCCC[C@H]2C(=O)O[C@H]([C@H](C)C[C@@H]2CC[C@@H](OCCO)[C@H](OC)C2)CC(=O)[C@H](C)/C=C(\C)[C@@H](O)[C@@H](OC)C(=O)[C@H](C)C[C@H](C)/C=C/C=C/C=C/1C [Everolimus] + CS(=O)(=O)CCNCc1ccc(-c2ccc3ncnc(Nc4ccc(OCc5cccc(F)c5)c(Cl)c4)c3c2)o1 [Lapatinib] (partner 2 µM)
Method in brief: as §1

Everolimus + AZD7762 = compound: CO[C@H]1C[C@@H]2CC[C@@H](C)[C@@](O)(O2)C(=O)C(=O)N2CCCC[C@H]2C(=O)O[C@H]([C@H](C)C[C@@H]2CC[C@@H](OCCO)[C@H](OC)C2)CC(=O)[C@H](C)/C=C(\C)[C@@H](O)[C@@H](OC)C(=O)[C@H](C)C[C@H](C)/C=C/C=C/C=C/1C [Everolimus] + NC(=O)Nc1cc(-c2cccc(F)c2)sc1C(=O)N[C@H]1CCCNC1 [AZD7762] (partner 0.2 µM)
Method in brief: as §1

Everolimus + Decitabine = compound: CO[C@H]1C[C@@H]2CC[C@@H](C)[C@@](O)(O2)C(=O)C(=O)N2CCCC[C@H]2C(=O)O[C@H]([C@H](C)C[C@@H]2CC[C@@H](OCCO)[C@H](OC)C2)CC(=O)[C@H](C)/C=C(\C)[C@@H](O)[C@@H](OC)C(=O)[C@H](C)C[C@H](C)/C=C/C=C/C=C/1C [Everolimus] + Nc1ncn([C@H]2C[C@H](O)[C@@H](CO)O2)c(=O)n1 [Decitabine] (partner 2 µM)
Method in brief: as §1

Cell Line	relative viability (Everolimus + Bortezomib; first compound 0.01 µM)	relative viability (Everolimus + Bortezomib; first compound 0.03162 µM)	relative viability (Everolimus + Bortezomib; first compound 0.1 µM)	relative viability (Everolimus + Bortezomib; first compound 0.3162 µM)	relative viability (Everolimus + Bortezomib; first compound 1 µM)	relative viability (Everolimus + Lapatinib; first compound 0.01 µM)	relative viability (Everolimus + Lapatinib; first compound 0.03162 µM)	relative viability (Everolimus + Lapatinib; first compound 0.1 µM)	relative viability (Everolimus + Lapatinib; first compound 0.3162 µM)	relative viability (Everolimus + Lapatinib; first compound 1 µM)	relative viability (Everolimus + AZD7762; first compound 0.01 µM)	relative viability (Everolimus + AZD7762; first compound 0.03162 µM)	relative viability (Everolimus + AZD7762; first compound 0.1 µM)	relative viability (Everolimus + AZD7762; first compound 0.3162 µM)	relative viability (Everolimus + AZD7762; first compound 1 µM)	relative viability (Everolimus + Decitabine; first compound 0.01 µM)	relative viability (Everolimus + Decitabine; first compound 0.03162 µM)	relative viability (Everolimus + Decitabine; first compound 0.1 µM)	relative viability (Everolimus + Decitabine; first compound 0.3162 µM)	relative viability (Everolimus + Decitabine; first compound 1 µM)
NCI-H1792	0.819	0.705	0.657	0.572	0.538	0.637	0.656	0.679	0.593	0.734	0.312	0.312	0.304	0.185	0.262	0.396	0.338	0.249	0.276	0.199
NCI-H1915	0.917	0.864	0.977	0.79	0.882	0.903	0.904	0.877	0.826	0.88	0.632	0.567	0.561	0.587	0.554	0.25	0.234	0.238	0.273	0.263
NCI-H1975	0.335	0.357	0.317	0.372	0.313	0.788	0.669	0.669	0.762	0.676	0.591	0.571	0.533	0.433	0.531	0.365	0.425	0.327	0.385	0.337
NCI-H1993	0.571	0.521	0.598	0.567	0.64	0.725	0.69	0.649	0.791	0.807	0.461	0.505	0.371	0.472	0.439	0.468	0.542	0.433	0.46	0.447
NCI-H2085	0.956	0.827	0.726	0.805	0.711	0.489	0.364	0.434	0.506	0.486	0.808	0.753	0.45	0.654	0.481	0.508	0.536	0.483	0.478	0.395
NCI-H2087	0.699	0.957	0.625	0.75	0.837	1.2	1.05	0.824	0.848	1.05	1.25	1.51	1.2	1.36	1.35	0.229	0.205	0.2	0.198	0.257
